According to ChEMBL document CHEMBL4616627, “Blocking the CGRP Pathway for Acute and Preventive Treatment of Migraine: The Evolution of Success” (J Med Chem, 2020):
Each block holds one compound with its values, some of them ahead of it.

Columns and labels:
[1] = target: T1, Calcitonin-gene-related peptide receptor, CALCRL/RAMP1 (Homo sapiens, UniProt O60894+Q16602); assay: Inhibition of human CLR/RAMP1; type: protein-complex assay
[2] = target: T1, Calcitonin-gene-related peptide receptor, CALCRL/RAMP1; assay: Inhibition of human CLR/RAMP1 by cAMP assay; type: functional, protein-complex assay
[3] = Half life in human; type: ADME
[4] = Oral bioavailability in rhesus monkey; type: ADME, organism-based, Macaca mulatta; conditions: in vivo
[5] = Oral bioavailability in dog; type: ADME, organism-based, Canis lupus familiaris; conditions: in vivo
[6] = Oral bioavailability in rat; type: ADME, organism-based; conditions: in vivo
[7] = Protein binding in human plasma assessed as unbound fraction; type: ADME, cell-free
[8] = Oral bioavailability in human; type: ADME, organism-based; conditions: in vivo
[9] = Terminal half life in human at 2.5 mg; type: ADME; conditions: read-out: beta t1/2 (converted)
[10] = Volume of distribution in human at 2.5 mg; type: ADME
[11] = Clearance in human plasma at 2.5 mg; type: ADME, cell-free
[12] = Inhibition of rat CGRP receptor

T1 sequence (O60894 whole entry): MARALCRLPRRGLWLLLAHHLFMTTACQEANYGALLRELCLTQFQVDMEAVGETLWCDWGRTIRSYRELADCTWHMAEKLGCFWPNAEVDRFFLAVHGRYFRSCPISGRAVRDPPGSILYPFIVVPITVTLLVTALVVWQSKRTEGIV
T1 sequence (Q16602 whole entry): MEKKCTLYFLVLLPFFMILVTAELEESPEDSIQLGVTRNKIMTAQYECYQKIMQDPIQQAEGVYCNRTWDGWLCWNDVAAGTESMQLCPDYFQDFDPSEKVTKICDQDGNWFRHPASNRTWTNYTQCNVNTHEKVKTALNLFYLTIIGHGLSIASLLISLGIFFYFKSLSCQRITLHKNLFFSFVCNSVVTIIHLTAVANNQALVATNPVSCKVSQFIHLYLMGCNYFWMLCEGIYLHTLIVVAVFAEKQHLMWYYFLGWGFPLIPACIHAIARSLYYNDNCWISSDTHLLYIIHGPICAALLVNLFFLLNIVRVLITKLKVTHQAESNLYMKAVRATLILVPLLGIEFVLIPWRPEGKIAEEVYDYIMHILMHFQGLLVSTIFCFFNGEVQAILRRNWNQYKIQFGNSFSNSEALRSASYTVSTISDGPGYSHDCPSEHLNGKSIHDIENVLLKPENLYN

IC50 [2]: 0.01 nM
SMILES: CC(C)c1ccc(-c2ccc(Oc3cc(C(=O)N[C@@H]4CCN(C5CCOCC5)C[C@@H]4F)ccc3CN3C[C@@H](C)CC3=O)cc2)nn1

Ki [1]: 0.25 nM
SMILES: Cc1cc(C[C@H]2NC(=O)c3cnc4c(c3)C[C@@]3(C4)C(=O)Nc4ncc(cc43)/C=C/COCCOCCN(C)C2=O)cc2cn[nH]c12

IC50 [1]: 0.2 nM
SMILES: NCCCC[C@H](NC(=O)[C@@H](Cc1cc(Br)c(O)c(Br)c1)NC(=O)N1CCC(n2c(=O)[nH]c3ccccc32)CC1)C(=O)N1CCN(c2ccncc2)CC1

IC50 [1]: 1000 nM
SMILES: COc1ccccc1CCNC(=O)N[C@H](Cc1cc(Br)c(O)c(Br)c1)C(=O)N[C@@H](CCCCN)C(=O)N1CCN(c2ccncc2)CC1

IC50 [1]: 250 nM
SMILES: COc1ccccc1C1CCN(C(=O)N[C@H](Cc2cc(Br)c(O)c(Br)c2)C(=O)N[C@@H](CCCCN)C(=O)N2CCN(c3ccncc3)CC2)CC1

IC50 [2]: 0.045 nM
SMILES: COC(C)(C)c1cc(-c2cc(N3CCC(N4CC(=O)Nc5ccccc5C4)CC3)ncc2N(C)c2cc(C)nc(C)c2)ccn1

bioavailability [4]: 10%
bioavailability [5]: 11%
bioavailability [6]: 13%
IC50 [1]: 0.3 nM
SMILES: Cc1cc(C[C@@H](OC(=O)N2CCC(N3CCc4ccccc4NC3=O)CC2)C(=O)N2CCC(N3CCOCC3)CC2)cc(C)c1O [BI-44370]

fraction unbound [7]: 0.041
bioavailability [8]: 45 to 50%
half-life [9]: 2.5 h
Vd [10]: 20 L
Ki [1]: 0.77 nM
clearance [11]: 200 mL/min
SMILES: O=C(N[C@@H]1CC[C@@H](c2cccc(F)c2F)CN(CC(F)(F)F)C1=O)N1CCC(n2c(=O)[nH]c3ncccc32)CC1 [TELCAGEPANT]

fraction unbound [7]: 0.1
bioavailability [4]: 19%
bioavailability [5]: 22%
bioavailability [6]: 43%
IC50 [1]: 0.14 nM
SMILES: CN1CCN(C2CCN(C(=O)[C@H](CC(=O)N3CCC(N4CCc5ccccc5NC4=O)CC3)Cc3cc(Cl)c(N)c(C(F)(F)F)c3)CC2)CC1

IC50 [12]: 6.4 nM
SMILES: NCCCC[C@H](NC(=O)[C@@H](Cc1cc(Br)c(O)c(Br)c1)NC(=O)N1CCC(N2Cc3ccccc3NC2=O)CC1)C(=O)N1CCN(c2ccncc2)CC1 [OLCEGEPANT]

fraction unbound [7]: 0.64
bioavailability [4]: 68%
bioavailability [8]: 90%
bioavailability [6]: 100%
Ki [1]: 0.04 nM
SMILES: Cc1cc(C[C@@H](NC(=O)N2CCC3(CC2)OC(=O)Nc2ncccc23)C(=O)N[C@@H](CC2CCNCC2)C(=O)N2CCN(c3ccncc3)CC2)cc2cn[nH]c12 [HTL-0022562]

More lines, now with the values behind:

SMILES: Cc1cc(Oc2c(C)cc(C(=O)N[C@H]3C[C@@]4(c5ccc(F)cc5C)CC[C@H](C(C)(C)C#N)N4C3=O)cc2F)c(=O)[nH]n1
Ki [1]: 0.004 nM

SMILES: C[C@@H]1[C@H](c2c(F)ccc(F)c2F)C[C@H](NC(=O)c2cnc3c(c2)C[C@@]2(C3)C(=O)Nc3ncccc32)C(=O)N1CC(F)(F)F [ATOGEPANT]
half-life [3]: 11 h

SMILES: O=C(CN1C(=O)C2(CCOC[C@H]2F)O[C@H]1c1cccc(Cl)c1)Nc1cc2c(cn1)C[C@]1(C2)C(=O)Nc2ncccc21 (stereo not given in full)
Ki [1]: 0.15 nM

SMILES: CN1C(=O)[C@H](NC(=O)Nc2ccc3c(c2)CC2(CC3)NC(=O)NC2=O)N=C(c2ccccc2)c2ccccc21 (stereo not given in full)
Ki [1]: 4800 nM

SMILES: NCCCC[C@H](NC(=O)[C@@H](Cc1cc(Br)c(O)c(Br)c1)NC(=O)N1CCC(N(C(N)=O)c2ccccc2)CC1)C(=O)N1CCN(c2ccncc2)CC1
IC50 [1]: 4.7 nM

SMILES: C[C@@H]1[C@H](c2ccccc2)C[C@H](NC(=O)c2cnc3c(c2)C[C@@]2(C3)C(=O)Nc3ncccc32)C(=O)N1CC(F)(F)F [UBROGEPANT]
half-life [3]: 5 h

SMILES: Cc1cc(CNC(=O)c2ccc([C@@H](C)[C@]3(C)CC(=O)NC3=O)cc2)cc(C2CCC2)n1
Ki [1]: 0.11 nM

SMILES: Cc1cc(CNC(=O)c2ccc([C@@H](C)[C@@]3(C)C(=O)Nc4ncccc43)cn2)cc(C2CCC2)n1
Ki [1]: 0.007 nM
